Data on ten molecules can be found in patent US4778799A, “Synergistic combination of flupirtin and non-steroidal antiphlogistic” (priority 1985, dated 1988).

Counter-ions that a name gives are not always drawn. Like-named read-outs stand apart in the source and are kept apart here.

Data set [1] in a line: Acetic Acid-Writhing Test according to Koster et al., analgetic activity, per os. The data set is classed as in vivo, white mouse (NMRI-Mouse). Conditions: for ED50: 0.5 h, substance alone, 30 minutes after giving, linear regression; for factor for the increase in activity of the analgetic action in combination with Flupirtin: compared to analgetic side activity component of the pure antiphlogistic; for inhibition in vivo at 3 mg/kg: 3.0 mg/kg per os; for inhibition in vivo at 5 mg/kg: 5.0 mg/kg per os; for inhibition in vivo at 6 mg/kg: 6.0 mg/kg per os; for inhibition in vivo at 10 mg/kg: 10.0 mg/kg per os. As to the method: These investigations were carried out in the Acetic Acid Test (Writhing Test) on the white mouse.
Writhing According to Koster et al; Fed.
(§1) Animal: White Mouse (NMRI-Mouse); Application: per os
Writhing Test According to Koster et al.: Fed.
as §1
The pain reaction is expressed as a characteristic stretching of the animals ("writhing syndrome") which persists in irregular time intervals for a long period of time after the injection of the acetic acid. The dosage dependent suppression of the frequency of the stretching motion compared to an untreated control group is expressed in percent as analgetic effect. The evaluation is carried out by determination of the ED50 (Method of Linear Regression).
The acetic acid test is marked by the fact that not only is there detectable the effect of strong, central acting analgetics but also preponderantly peripherally acting analgetics-antipyretics and antiphlogistically active pharmaceuticals such as phenyl butazone, Indometacin and others. Therewith the effect in this procedure refers to a peripheral component of the analgesic.

For data set [2] the following is noted: antiphlogistic alone, per os, mouse; cited from earlier work.
A short description of data set [3]: Randall-Selitto Test, inflammation pain, per os. The note with it: for ED50: Rattus norvegicus, po, 0.5 h. The data set is classed as in vivo, albino rat (Sprague-Dawley). As to the method:
Randall-Selitto-Test According to Randall, Selitto, Arch. int.
Animal: Albino-Rat (Sprague-Dawley); Application: per os
Sucker, Fuchs, Speiser, Pharmazeutische Technologie, Thieme-Verlag, Stuttgart, 1978. Short Description of the Pharmacological Test Methods Mentioned in the Application Randall-Selitto-Test (Inflammation Pain on the Rat)
In accordance with the method of Randall and Selitto (L. O. Randall, J. J. Selitto, Arch. int. Pharmacodyn., Volume 111, pages 409-418, 1957) rats were injected subplantarly with […] of a 20% (in dimineralized water) brewer's yeast suspension in the right hind paw. 21/2 hours later the test materials were dispensed and 30 minutes later the swelling pain measured with an Algesiemeter as pressure (in grams) on the inflamed paw (apparatus of Ugo Basile, Milan, Italy). As criteria there are considered the defensive reaction of the animals drawing the paw away and/or freeing themselves from the grip of the experimenters. The effect of the material was determined from the increase of the swelling pain compared to the untreated control group. The experimental procedure different from the original method in that the materials were applied 21/2 hours after the setting of edema and not simultaneously therewith. In this way there should be prevented the development of edema, being checked by a possible antiphlogistic action and the analgesy superimposed or simulated.
The ED50 was determined by means of the method of linear regression.

Data set [4] is described as follows: Bradykinin-Edema Test, antiphlogistic activity, per os. The data set is classed as in vivo, albino rat (Sprague-Dawley). The note with it: alone. As to the method:
Bradykinin-Edema-Test Relying On and Modification of the Method of
Morsdorf et al (Arch. int. Pharmacodyn. 192,111-127 (1971). Animal:
Albino-rat (Sprague-Dawley):
Relying on the modification of the method of Morsdorf et al (Arch. int. Pharmacodyn. Volume 192, pages 111-127 (1971)) male rats received subplantarly in the right hind paw an injection of a 1% carrageenin solution (Carrageenin, Type IV, Sigma C-3889). One hour and four hours later there was determined the volume of the paw. To measure the volume there was used a volume meter (Rhema-Labortechnik Company, D-6238 Hofheim, Type 2060). Directly after the first measurement the test substance was dispensed by means of a gullet stomach catheter. There was calculated the increase in the swelling of the paw in the second measurement compared to the first measurement in absolute values (ml). The evaluation included the determination of the percent average value of the difference of the edema volumes one and four hours after receiving the inflammatory solution. The edema inhibiting action was calculated in percent from the edema volume measured by water displacement in comparison to the edema volume of the untreated inflammed control group.
As the single change in comparison to the Carrageenin-Edema Test in place of Carrageenin there was injected subplantarly Bradykinin (Sigma B 3259) 0.01 mg/animal in 0.1 ml of a 0.9% sodium chloride solution.

Setting [5] is: Mus musculus, po, read-out: Activity in %.
[6] abbreviates: Mus musculus, po, per os, read-out: ED50.
[7] abbreviates: Mus musculus, po, alone, 4.0 mg/kg per os, read-out: Activity in %.

As a reminder, the ED50 is the dose at which the effect has come halfway, by size or by number of responders. Turning to `CCOC(=O)Nc1ccc(NCc2ccc(F)cc2)nc1N` [Flupirtin (Gluconate)], the ED50 in data set [1] (Mus musculus, po, per os) is 43.9 mg/kg. Besides, in data set [1] (setting [5]), the inhibition in vivo at 0.56 mg/kg amounted to 19.2%, the inhibition in vivo at 1.12 mg/kg was 28%, the inhibition in vivo at 2.24 mg/kg was determined as 37.6% and the inhibition in vivo at 4.47 mg/kg stood at 46.4%. Besides, in data set [1] (setting [5]), the inhibition in vivo at 8.93 mg/kg is 38.4%, the inhibition in vivo at 17.85 mg/kg stood at 22.4% and the inhibition in vivo at 35.7 mg/kg came out at 61.6%.

With `COc1ccc2c(c1)c(CC(=O)N[C@@H](C=O)[C@@H](O)[C@H](O)[C@H](O)CO)c(C)n2C(=O)c1ccc(Cl)cc1` [Glucametacin], in data set [1], the “factor for the increase in activity of the analgetic action in combination with Flupirtin” value (“factor for the increase in activity” for short) was 2-15.

For the molecule `Cc1cc(NC(=O)C2=C(O)c3ccccc3S(=O)(=O)N2C)no1` [Isoxicam], the ED50 in data set [1] (setting [6]) was 6.6 mg/kg. For the same molecule, in data set [1] (Mus musculus, po, alone), the inhibition in vivo at 3 mg/kg was 10.1%, the inhibition in vivo at 5 mg/kg was found to be 36.7%, the inhibition in vivo at 6 mg/kg amounted to 46% and the inhibition in vivo at 10 mg/kg turned out to be 66.2%. Also, in data set [1] (setting [7]), the inhibition in vivo at 4 mg/kg was 30.2%. The same molecule showed an inhibition in vivo at 7 mg/kg in data set [1] (Mus musculus, po, alone, 7.0 mg/kg per os) of 51.1%. Moreover, the inhibition in vivo at 8 mg/kg in data set [1] (Mus musculus, po, alone, 8.0 mg/kg per os, read-out: Activity in %) was 62.6%. Further, in data set [1], the “factor for the increase in activity” value is reported as 2-15.

Turning to `CCOC(=O)Nc1ccc(NCc2ccc(F)cc2)nc1N` [Flupirtin, 2-amino-3-carbethoxyamino-6-(fluoro-benzylamino)-pyridine], the ED50 in data set [1] (setting [6]) was found to be 44 mg/kg. Further, in data set [1] (Mus musculus, po, alone, per os, read-out: lowest analgetically effective dosage), the minimal effective dose is 2.24 mg/kg.

Take `COc1ccc2cc([C@H](C)C(=O)O)ccc2c1` [Naproxen]: the inhibition in vivo at 0.38 mg/kg in data set [1] (Mus musculus, po, alone, 0.38 mg/kg per os) worked out at 21.7%. In data set [1] (Mus musculus, po, alone, 0.75 mg/kg per os), this molecule had an inhibition in vivo at 0.75 mg/kg of 42%. The same molecule returned an inhibition in vivo at 1.5 mg/kg in data set [1] (Mus musculus, po, alone, 1.5 mg/kg per os) of 43.4%. In data set [1] (Mus musculus, po, alone), this molecule had an inhibition in vivo at 3 mg/kg of 53.8% and an inhibition in vivo at 6 mg/kg of 70%. This molecule returned an inhibition in vivo at 12 mg/kg in data set [1] (Mus musculus, po, alone, 12.0 mg/kg per os) of 74.1%. Moreover, the inhibition in vivo at 24 mg/kg in data set [1] (Mus musculus, po, alone, 24.0 mg/kg per os) amounted to 54.5%. Moreover, the “factor for the increase in activity” value in data set [1] is 2-15.

By LD50 is commonly meant the dose expected to kill half of the subjects tested. For the molecule `CC(=O)Oc1ccccc1C(=O)O` [Acetylsalicylic Acid, acetylsalicylic acid], it took a dose of 149 mg/kg to reach the 50% effect level in data set [1] (Mus musculus, po, per os) (ED50). For the same molecule, in data set [1] (setting [5]), the inhibition in vivo at 25 mg/kg stood at 11%, the inhibition in vivo at 50 mg/kg was 30.1%, the inhibition in vivo at 75 mg/kg worked out at 39% and the inhibition in vivo at 100 mg/kg worked out at 41.1%. Also, in data set [1] (setting [5]), the inhibition in vivo at 150 mg/kg turned out to be 43.2%, the inhibition in vivo at 200 mg/kg is 59.6% and the inhibition in vivo at 400 mg/kg came to 71.2%. Further, the “factor for the increase in activity” value in data set [1] is listed as 2-15. In data set [2], the LD50 is recorded as 815 mg/kg.

Consider `CN1C(C(=O)Nc2ccccn2)=C(O)c2ccccc2S1(=O)=O` [Piroxicam], for which the ED50 in data set [1] (setting [6]) is 3.46 mg/kg. Further, the inhibition in vivo at 1 mg/kg in data set [1] (Mus musculus, po, alone, 1.0 mg/kg per os) came to 38.2%. In data set [1] (Mus musculus, po, alone), this molecule had an inhibition in vivo at 3 mg/kg of 40%, an inhibition in vivo at 5 mg/kg of 61.8% and an inhibition in vivo at 10 mg/kg of 70.9%. Besides, in data set [1] (setting [7]), the inhibition in vivo at 4 mg/kg is 53.6%. The molecule further gave an inhibition in vivo at 20 mg/kg in data set [1] (Mus musculus, po, alone, 20.0 mg/kg per os) of 49.1%. Moreover, in data set [1], the “factor for the increase in activity” value is 2-15. Also, the LD50 in data set [2] was 350 mg/kg.

Consider `CC1=C(CC(=O)O)c2cc(F)ccc2/C1=C\c1ccc([S+](C)[O-])cc1` (stereo not shown) [Sulindac], for which the ED50 in data set [1] (setting [6]) is 2.3 mg/kg. Further, in data set [1] (setting [5]), the inhibition in vivo at 0.47 mg/kg is 29.6%, the inhibition in vivo at 0.94 mg/kg stood at 44.6%, the inhibition in vivo at 1.88 mg/kg stood at 49.7% and the inhibition in vivo at 3.75 mg/kg stood at 56%. For the same molecule, in data set [1] (setting [5]), the inhibition in vivo at 7.5 mg/kg was 61%, the inhibition in vivo at 15 mg/kg was 71.1% and the inhibition in vivo at 30 mg/kg came to 72.3%. In addition, the “factor for the increase in activity” value in data set [1] is recorded as 2-15.

`CCOC(=O)Nc1ccc(NCc2ccc(F)cc2)nc1N` [Flupirtin (Hydrochloride)]: the ED50 in data set [3] was 30.9 mg/kg; in data set [4] (per os, printed in words: no ED50 defineable), “no ED50”. For the same molecule, the Activity in % in data set [3] (alone, 10.0 mg/kg per os) is on record as -8.3%; in data set [3] (alone, 20.0 mg/kg per os), 23.2%; in data set [3] (alone, 30.0 mg/kg per os), 45.8%; in data set [3] (alone, 40.0 mg/kg per os) it was 67.5%. The “Activity in % (- = inhibiting)” value is on record as “+4.6%” in data set [4] (5.0 mg/kg per os), -25.0% in data set [4] (10.0 mg/kg per os), -13.6% in data set [4] (20.0 mg/kg per os) and -2.3% in data set [4] (30.0 mg/kg per os).

Consider `COc1ccc2c(c1)c(CC(=O)O)c(C)n2C(=O)c1ccc(Cl)cc1` [Indometacin], for which the ED50 in data set [1] (Mus musculus, po, per os) was 4.3 mg/kg; in data set [3] (alone, per os, 30 minutes after giving, linear regression, read-out: ED50) it was 2.77 mg/kg. In data set [1] (setting [5]), the inhibition in vivo at 2 mg/kg stood at 17.3%. For the same molecule, the inhibition in vivo at 4 mg/kg in data set [1] (setting [5]) stood at 50%. Also, in data set [1] (setting [5]), the inhibition in vivo at 8 mg/kg is 86.3%. Moreover, the inhibition in vivo at 16 mg/kg in data set [1] (setting [5]) is 82.1%. In addition, in data set [1], the “factor for the increase in activity” value is listed as 2-15. The Activity in % is listed as 12.3% in data set [3] (alone, 1.0 mg/kg per os); 22.05% in data set [3] (alone, 2.0 mg/kg per os); 58.97% in data set [3] (alone, 4.0 mg/kg per os); 114.87% in data set [3] (alone, 8.0 mg/kg per os); 127.18% in data set [3] (alone, 16.0 mg/kg per os). Further, the median lethal dose (LD50) in data set [2] is reported as 21 mg/kg.
